# From US11672788B2, “Histone deacetylase inhibitors for immunomodulation in tumor microenvironment” (GREAT NOVEL THERAPEUTICS BIOTECH & MEDICALS CORPORATION, priority 2020, dated 2023)
# Key:
# [1] = system: SW48 cells; assay: Cell apoptosis (sub-G1) by PI flow cytometry; type: cell-based, human; conditions: 72 h; for Induction of apoptosis: SW48, indicated doses (Table 13)
# Method: (§1) A PI/RNase staining assay (BD Bioscience™) was performed to reveal the presence of cell cycle arrest and apoptotic cells after treatment with GNTbm compounds, Chidamide and Entinostat. […] After treatment cells were harvested, fixed with 80% ethanol for 24 h, washed with 1×PBS and stained with PI/RNase for 15 min at room temperature. The cells were then analyzed using Flow Cytometer within 1 h.
# [2] = target: T1, HDAC3 (Homo sapiens (Human), UniProt O15379); assay: HDAC3 enzymatic kinetic assay; type: biochemical; conditions: 2 μM; 20 min, 40 min and 60 min
# T1 sequence (O15379 whole entry): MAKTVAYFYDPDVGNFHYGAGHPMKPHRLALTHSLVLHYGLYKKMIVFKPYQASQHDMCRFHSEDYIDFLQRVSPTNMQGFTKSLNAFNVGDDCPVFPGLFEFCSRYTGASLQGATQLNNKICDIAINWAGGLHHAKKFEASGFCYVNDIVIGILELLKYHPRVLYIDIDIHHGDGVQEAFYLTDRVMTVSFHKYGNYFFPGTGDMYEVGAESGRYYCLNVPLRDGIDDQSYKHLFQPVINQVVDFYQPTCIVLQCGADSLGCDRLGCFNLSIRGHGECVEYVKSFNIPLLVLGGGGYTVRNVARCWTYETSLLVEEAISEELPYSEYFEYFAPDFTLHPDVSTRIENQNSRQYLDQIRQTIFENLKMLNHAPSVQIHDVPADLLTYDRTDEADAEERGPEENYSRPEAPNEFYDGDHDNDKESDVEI
# T1 sequence (Q9Y618 395-489 partner): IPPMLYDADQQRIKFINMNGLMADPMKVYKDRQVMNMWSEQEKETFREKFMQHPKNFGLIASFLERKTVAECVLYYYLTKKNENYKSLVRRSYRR
# Method: (§2) HDAC3 enzymatic kinetic assay was performed according to standard Protocols (Fluorgenic HDAC3 assay kit, BPS Bioscience™). […] After incubation, assay developer was added to the samples and the absorbance was read at fluorogenic wavelength. The relative inhibition to HDAC3 activity in each sample was determined.
# [3] = Saturation solubility; type: physicochemical; conditions: ddH2O, 25° C., mean ± SD, BDL: Below detection limit; for Saturation Solubility: 90 minutes
# Method: Samples of 5 mg of compounds were added to 5 ml volumetric flasks containing ddH2O and shaken at 100 rpm in an incubator at 25° C. for 90 minutes. The resulting suspension was filtered through a 0.22 μm filter. The concentrations of compounds were determined spectrophotometrically at 256 nm. The saturation solubility of each sample was determined in triplicates and the mean value and standard deviation were reported.
# [4] = system: MDA-MB-453; assay: In vitro cytotoxicity MTT assay; type: cell-based, human; conditions: IC50 ± SD
# Method: (§3) Six different cell lines were used, including human breast cancer cell line MDA-MB-231 (6×10^3), MDA-MB-453 (2.4×10^4), SK-BR-3 (6×10^3), human breast epithelial cell line M10 (6×10^3), human gastric carcinoma NCI-N87 (2.4×10^4), and human colorectal adenocarcinoma SW48 (2.4×10^4), and seeded in a 96 well plate. Cell lines were obtained from Bioresource Collection and Research Center, BCRC, Taiwan. […] After 72 h, MTT assay (Cayman™) was used to determine the cellular viability.
# [5] = system: M10; assay: In vitro cytotoxicity MTT assay; type: cell-based, human; conditions: IC50 ± SD
# Method: as §3
# [6] = system: SW48; assay: In vitro cytotoxicity MTT assay; type: cell-based, human; conditions: IC50 ± SD
# Method: as §3
# [7] = system: MDA-MB-231; assay: In vitro cytotoxicity MTT assay; type: cell-based, human; conditions: IC50 ± SD
# Method: as §3
# [8] = system: SK-BR-3; assay: In vitro cytotoxicity MTT assay; type: cell-based; conditions: Homo sapiens, 72 h, IC50 ± SD
# Method: as §3
# [9] = system: NCI-N87; assay: In vitro cytotoxicity MTT assay; type: cell-based; conditions: Homo sapiens, 72 h, IC50 ± SD
# Method: as §3
# [10] = system: SW48 cells; assay: Cell cycle arrest by PI flow cytometry; type: cell-based, human; conditions: for Percentage of Cell Cycle Distribution G0/G1 / Percentage of Cell Cycle Distribution G2/M / Percentage of Cell Cycle Distribution S: 72 h; for Cell cycle arrest: SW48, doses of Table 12
# Method: as §1
# [11] = target: HDAC1 (Homo sapiens (Human), UniProt Q13547); assay: HDACs 1, 2, and 3 enzymatic inhibition (fluorogenic kit, 1 h); type: biochemical; conditions: 37° C.
# HDAC1, sequence (Q13547 whole entry): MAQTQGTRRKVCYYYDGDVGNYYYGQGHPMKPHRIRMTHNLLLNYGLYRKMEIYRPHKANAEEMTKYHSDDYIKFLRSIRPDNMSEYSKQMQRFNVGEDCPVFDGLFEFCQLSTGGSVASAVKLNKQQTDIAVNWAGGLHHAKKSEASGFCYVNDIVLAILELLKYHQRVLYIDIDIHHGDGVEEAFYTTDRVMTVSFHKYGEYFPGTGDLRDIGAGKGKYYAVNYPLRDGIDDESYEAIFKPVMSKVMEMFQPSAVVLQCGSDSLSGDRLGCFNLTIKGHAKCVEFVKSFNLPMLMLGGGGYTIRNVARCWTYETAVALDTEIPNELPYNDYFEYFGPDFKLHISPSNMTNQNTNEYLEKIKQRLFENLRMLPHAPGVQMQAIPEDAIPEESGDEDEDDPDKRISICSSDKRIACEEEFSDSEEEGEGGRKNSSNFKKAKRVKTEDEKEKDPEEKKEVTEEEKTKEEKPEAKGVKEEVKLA
# Method: as §2, with “HDACs” for “HDAC3 enzymatic kinetic”, “HDACs 1, 2, and 3” for “HDAC3”, “1 h,” for “incubation,”, “HDACs 1, 2, and 3 activities” for “HDAC3 activity”
# [12] = target: HDAC2 (Homo sapiens (Human), UniProt Q92769); assay: as above; type: biochemical; conditions: 37° C.
# HDAC2, sequence (Q92769 whole entry): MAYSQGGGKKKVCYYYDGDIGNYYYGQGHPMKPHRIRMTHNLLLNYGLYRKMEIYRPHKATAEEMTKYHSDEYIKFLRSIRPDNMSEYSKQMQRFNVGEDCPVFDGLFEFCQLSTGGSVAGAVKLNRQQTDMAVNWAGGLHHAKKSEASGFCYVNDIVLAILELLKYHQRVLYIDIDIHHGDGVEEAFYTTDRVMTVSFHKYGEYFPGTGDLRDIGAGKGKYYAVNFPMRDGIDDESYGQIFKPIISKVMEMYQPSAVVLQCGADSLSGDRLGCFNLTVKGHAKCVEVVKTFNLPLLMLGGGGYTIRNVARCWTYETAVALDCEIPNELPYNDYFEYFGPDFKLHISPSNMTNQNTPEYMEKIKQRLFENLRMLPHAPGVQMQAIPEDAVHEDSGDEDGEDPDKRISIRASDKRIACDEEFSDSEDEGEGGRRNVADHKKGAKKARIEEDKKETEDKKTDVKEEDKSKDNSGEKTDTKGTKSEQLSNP
# Method: as §2, with “HDACs” for “HDAC3 enzymatic kinetic”, “HDACs 1, 2, and 3” for “HDAC3”, “1 h,” for “incubation,”, “HDACs 1, 2, and 3 activities” for “HDAC3 activity”
# [13] = target: T1, HDAC3; assay: as above; type: biochemical; conditions: 37° C.
# Method: as §2, with “HDACs” for “HDAC3 enzymatic kinetic”, “HDACs 1, 2, and 3” for “HDAC3”, “1 h,” for “incubation,”, “HDACs 1, 2, and 3 activities” for “HDAC3 activity”
# [14] = system: histone H3 acetylation (AcH3) in SW48 cells; assay: Western blot of histone H3 acetylation; type: cell-based, human; conditions: SW48, 24 h, FIG. 12c
# Method: Human breast cancer MDA-MB-231 cells and human colorectal adenocarcinoma SW48 cells were analyzed. MDA-MB-231 and SW48 were obtained from Bioresource Collection and Research Center (BCRC, Taiwan). MDA-MB-231 and SW48 were grown at 37° C. under humidified air supplemented without CO2 in Leibovitz's L-15 (cat. #11415114, Thermo Fisher Scientific) containing 10% heat inactivated fetal calf serum (Thermo Scientific), 1× concentration of MycoZap antibiotics (cat. #VZA-2011, Lonza). Cells were treated with GNTbm compounds series, Chidamide or Entinostat for different time periods or at varied doses. Cells were treated with indicated doses for 24 h or cells were treated with indicated doses for different time periods. Cell pellets were dissolved with RIPA buffer (cat. #20-188, Merck) with protease and phosphatase inhibitors (cat. #K272, BioVision) and clarified by centrifugation. Equal amounts of total protein were resolved by SDS-PAGE and transferred to polyvinylidene fluoride membranes (cat. #1620177, BIO-RAD). Blots were incubated with primary antibodies against β-actin (cat. #sc-47778, Santa Cruz Biotechnology), Histone 3ac (cat. #61637, Active Motif), and HRP secondary antibodies anti-rabbit (ab6721, Abcam) and anti-mouse (sc-2005, Santa Cruz). Blots were developed using the ECL Western Blotting Substrate (cat. #sc-2048, Santa Cruz Biotechnology) Image blots were analyzed with the iBright FL1000 (Thermo Fisher Scientific) imaging systems.
SMILES,Inhibition of HDAC 3 enzyme activities (kinetics) [2],Saturation Solubility [3],"IC50 ([4]; Homo sapiens, MDA-MB-453, 72 h) [µM]","IC50 ([5]; Homo sapiens, M10, 72 h) [µM]","IC50 ([7]; Homo sapiens, MDA-MB-231, 72 h) [µM]",IC50 [8] [µM],IC50 [9] [µM],Cell cycle arrest [10],IC50 [11] [µM],IC50 [12] [µM],IC50 [13] [µM],"IC50 ([6]; Homo sapiens, SW48, 72 h) [µM]","Percentages of Cell Apoptosis ([1]; SW48, 0.125 μM) [%]","Percentages of Cell Apoptosis ([1]; SW48, 0.5 μM) [%]","Percentages of Cell Apoptosis ([1]; SW48, 1 μM) [%]","Percentages of Cell Apoptosis ([1]; SW48, 2 μM) [%]",Induction of apoptosis [1],Histone 3 acetylation expression versus Chidamide [14],"Percentage of Cell Cycle Distribution G0/G1 ([10]; SW48, 0.125 μM) [%]","Percentage of Cell Cycle Distribution G2/M ([10]; SW48, 0.125 μM) [%]",also measured
"Nc1cc(F)ccc1NC(=O)c1ccc(CNC(=O)/C=C/c2cccnc2)cc1 [Chidamide, reference compound]",stronger inhibition of HDAC 3 enzyme activities than Entinostat,BDL,1.77 ± 0.02,2.72 ± 2.6,25.6 ± 3.05,3.24 ± 0.98,3.09 ± 0.2,induced cell cycle arrest in the G0/G1 phase,,,,,,,,,,,,,"Percentages of Cell Apoptosis ([1]; SW48, 0.3125 μM): 9.0%; Percentages of Cell Apoptosis ([1]; SW48, 0.625 μM): 10.2%; Percentages of Cell Apoptosis ([1]; SW48, 1.25 μM): 15.1%; Percentages of Cell Apoptosis ([1]; SW48, 5 μM): 35.4%; IC50 ([4]; 72 h): 1.36 ± 0.12 µM; IC50 ([5]; 72 h): 4.94 ± 0.87 µM; IC50 ([6]; 72 h): 5.43 ± 1.06 µM; IC50 ([7]; 72 h): 17.4 ± 1.98 µM; Percentage of Cell Cycle Distribution G0/G1 ([10]; SW48, 0.3125 μM): 65.7%; Percentage of Cell Cycle Distribution G2/M ([10]; SW48, 0.3125 μM): 16.7%; Percentage of Cell Cycle Distribution S ([10]; SW48, 0.3125 μM): 17.6%; Percentage of Cell Cycle Distribution G0/G1 ([10]; SW48, 0.625 μM): 68.1%; Percentage of Cell Cycle Distribution G2/M ([10]; SW48, 0.625 μM): 17.5%; Percentage of Cell Cycle Distribution S ([10]; SW48, 0.625 μM): 14.4%; Percentage of Cell Cycle Distribution G0/G1 ([10]; SW48, 1.25 μM): 70.6%; Percentage of Cell Cycle Distribution G2/M ([10]; SW48, 1.25 μM): 15.3%; Percentage of Cell Cycle Distribution S ([10]; SW48, 1.25 μM): 14.1%; Percentage of Cell Cycle Distribution G0/G1 ([10]; SW48, 5 μM): 79.9%; Percentage of Cell Cycle Distribution G2/M ([10]; SW48, 5 μM): 11.6%; Percentage of Cell Cycle Distribution S ([10]; SW48, 5 μM): 8.5%"
"Cc1ccc(/C=C/CC(=O)Nc2ccc(C(=O)Nc3ccc(F)cc3N)cn2)cn1 [GNTbm-01, 6-((E)-4-(6-methylpyridin-3-yl)but-3-enamido)-N-(2-amino-4-fluorophenyl)pyridine-3-carboxamide]",,,20.9 ± 4.44,24.8 ± 1.15,49.8 ± 4.9,28.5 ± 1.85,,,6.77 ± 0.76,2.68 ± 0.2,2.75 ± 0.13,> 50,,,,,,,,,
"Cc1ccc(/C=C/CC(=O)Nc2ccc(C(=O)Nc3ccc(F)cc3N)cc2)cn1 [GNTbm-03, 4-((E)-4-(6-methylpyridin-3-yl)but-3-enamido)-N-(2-amino-4-fluorophenyl)benzamide]",stronger inhibition of HDAC 3 enzyme activities than GNTbm-01,BDL,1.81 ± 0.008,6.1 ± 0.134,26.7 ± 5.8,4.07 ± 0.68,,,0.56 ± 0.04,0.51 ± 0.05,0.67 ± 0.06,5.26 ± 0.9,,,,,,,,,
"Nc1cc(F)ccc1NC(=O)c1ccc(NC(=O)C/C=C/c2cccnc2)cn1 [GNTbm-04, 5-((E)-4-(pyridin-3-yl)but-3-enamido)-N-(2-amino-4-fluorophenyl)pyridine-2-carboxamide]",,,1.59 ± 0.003,1.81 ± 0.06,1.64 ± 0.004,,0.34 ± 0.04,significant induced cell cycle arrest in G0/G1 phase in SW48 cells,0.38 ± 0.04,0.54 ± 0.007,0.2 ± 0.1,0.6 ± 0.09,2.9,10.8,20.8,32,potent in inducing apoptosis in SW48 cells,more potent in inducing the histone 3 acetylation expression in SW48 cells than Chidamide,56.9,25.2,"solubility at 90 min ([3]; water, thermodynamic from solid): 7.2 µg/mL; Percentage of Cell Cycle Distribution S ([10]; SW48, 0.125 μM): 17.9%; Percentage of Cell Cycle Distribution G0/G1 ([10]; SW48, 0.5 μM): 63.2%; Percentage of Cell Cycle Distribution G2/M ([10]; SW48, 0.5 μM): 19.3%; Percentage of Cell Cycle Distribution S ([10]; SW48, 0.5 μM): 17.5%; Percentage of Cell Cycle Distribution G0/G1 ([10]; SW48, 1 μM): 67.2%; Percentage of Cell Cycle Distribution G2/M ([10]; SW48, 1 μM): 18.9%; Percentage of Cell Cycle Distribution S ([10]; SW48, 1 μM): 13.9%; Percentage of Cell Cycle Distribution G0/G1 ([10]; SW48, 2 μM): 70.5%; Percentage of Cell Cycle Distribution G2/M ([10]; SW48, 2 μM): 18.7%; Percentage of Cell Cycle Distribution S ([10]; SW48, 2 μM): 10.8%"
"Nc1cc(F)ccc1NC(=O)c1ccc(NC(=O)C/C=C/c2cccnc2)cc1 [GNTbm-39, 4-((E)-4-(pyridin-3-yl)but-3-enamido)-N-(2-amino-4-fluorophenyl)benzamide]",,,1.84 ± 0.02,1.96 ± 0.02,2.93 ± 0.45,,0.64 ± 0.03,significantly induced cell cycle arrest in the G2/M phase in SW48 cells,3.7 ± 0.04,0.68 ± 0.03,0.89 ± 0.13,1.73 ± 0.01,9.5,17.8,25.4,37.8,potent in inducing apoptosis in SW48 cells,more potent in inducing the histone 3 acetylation expression in SW48 cells than Chidamide,57.2,22.3,"Percentage of Cell Cycle Distribution S ([10]; SW48, 0.125 μM): 20.5%; Percentage of Cell Cycle Distribution G0/G1 ([10]; SW48, 0.5 μM): 58.8%; Percentage of Cell Cycle Distribution G2/M ([10]; SW48, 0.5 μM): 24.7%; Percentage of Cell Cycle Distribution S ([10]; SW48, 0.5 μM): 16.5%; Percentage of Cell Cycle Distribution G0/G1 ([10]; SW48, 1 μM): 46.5%; Percentage of Cell Cycle Distribution G2/M ([10]; SW48, 1 μM): 32.8%; Percentage of Cell Cycle Distribution S ([10]; SW48, 1 μM): 20.7%; Percentage of Cell Cycle Distribution G0/G1 ([10]; SW48, 2 μM): 42.3%; Percentage of Cell Cycle Distribution G2/M ([10]; SW48, 2 μM): 38.9%; Percentage of Cell Cycle Distribution S ([10]; SW48, 2 μM): 18.8%"
